Experiment: excess molar enthalpy (molar enthalpy of mixing); xn = mol fraction of the nth substance listed
Details: 293.15 K, 100 kPa

Cl/C=C/Cl + CCCCCCCCCCCC
Details | excess molar enthalpy [kcal/mol]
x1 = 0.086 | 0.0404
x1 = 0.1183 | 0.05
x1 = 0.1952 | 0.0913
x1 = 0.2658 | 0.115
x1 = 0.354 | 0.151
x1 = 0.4354 | 0.175
x1 = 0.5034 | 0.19
x1 = 0.5297 | 0.19
x1 = 0.5654 | 0.193
x1 = 0.5792 | 0.19
x1 = 0.637 | 0.19
x1 = 0.6708 | 0.187
x1 = 0.6712 | 0.19
x1 = 0.6857 | 0.185
x1 = 0.7145 | 0.182
x1 = 0.7213 | 0.179
x1 = 0.7547 | 0.173
x1 = 0.7676 | 0.166
x1 = 0.8276 | 0.14
x1 = 0.8799 | 0.107
x1 = 0.9289 | 0.0707
x1 = 0.9652 | 0.038

Cl/C=C\Cl + CCCCCCCCCCCC
Details | excess molar enthalpy [kcal/mol]
x1 = 0.2693 | 0.192
x1 = 0.4431 | 0.283
x1 = 0.6609 | 0.281
x1 = 0.7922 | 0.232
x1 = 0.851 | 0.191
x1 = 0.9026 | 0.139
x1 = 0.9588 | 0.0679

Cl/C=C/Cl + CCCCCCCCCCCCCC
Details | excess molar enthalpy [kcal/mol]
x1 = 0.1129 | 0.05
x1 = 0.1792 | 0.0877
x1 = 0.3112 | 0.14
x1 = 0.3404 | 0.153
x1 = 0.3809 | 0.165
x1 = 0.4345 | 0.181
x1 = 0.4786 | 0.193
x1 = 0.5019 | 0.2
x1 = 0.535 | 0.201
x1 = 0.5634 | 0.205
x1 = 0.5851 | 0.204
x1 = 0.6008 | 0.207
x1 = 0.6211 | 0.209
x1 = 0.6352 | 0.208
x1 = 0.6675 | 0.204
x1 = 0.6789 | 0.202
x1 = 0.7008 | 0.199
x1 = 0.7106 | 0.198
x1 = 0.7314 | 0.191
x1 = 0.747 | 0.188
x1 = 0.757 | 0.185
x1 = 0.7762 | 0.178
x1 = 0.8541 | 0.141
x1 = 0.8757 | 0.127
x1 = 0.9005 | 0.108
x1 = 0.9374 | 0.0746

Cl/C=C\Cl + CCCCCCCCCCCCCC
Details | excess molar enthalpy [kcal/mol]
x1 = 0.3157 | 0.229
x1 = 0.5126 | 0.327
x1 = 0.638 | 0.336
x1 = 0.7787 | 0.288
x1 = 0.8831 | 0.194
x1 = 0.923 | 0.139
x1 = 0.969 | 0.0657

Cl/C=C/Cl + CCCCCCCCCCCCCCCC
Details | excess molar enthalpy [kcal/mol]
x1 = 0.0735 | 0.0351
x1 = 0.1873 | 0.0944
x1 = 0.3532 | 0.167
x1 = 0.4326 | 0.192
x1 = 0.5287 | 0.212
x1 = 0.5819 | 0.223
x1 = 0.6155 | 0.223
x1 = 0.6514 | 0.22
x1 = 0.7106 | 0.214
x1 = 0.7294 | 0.208
x1 = 0.7428 | 0.205
x1 = 0.7698 | 0.197
x1 = 0.7846 | 0.194
x1 = 0.8008 | 0.184
x1 = 0.8578 | 0.152
x1 = 0.8776 | 0.137
x1 = 0.8951 | 0.125
x1 = 0.9485 | 0.071
x1 = 0.9795 | 0.0306

Cl/C=C\Cl + CCCCCCCCCCCCCCCC
Details | excess molar enthalpy [kcal/mol]
x1 = 0.5093 | 0.332
x1 = 0.6348 | 0.36
x1 = 0.714 | 0.353
x1 = 0.7791 | 0.326
x1 = 0.8308 | 0.282
x1 = 0.8823 | 0.228
x1 = 0.9221 | 0.168
x1 = 0.9676 | 0.0798
